Reference: ChEMBL document CHEMBL4483862, “Open-source discovery of chemical leads for next-generation chemoprotective antimalarials” (2018)

Test system: Plasmodium berghei
Test: Luciferase/luciferin-expressing antifolate-resistant parasites were used to infect a culture of HepG2 cells that were pre-incubated with compounds. Infected hepatocytes emit light due to the luciferase reaction. Assay results are presented as the percent inhibition of light emission compared to control. […]
Type: functional
Conditions: sporozoite; for IC90: read-out: LUCIFERASE INFECTION ASSAY - IC90
[1] = read-out: LUCIFERASE INFECTION ASSAY - IC50

| Structure (SMILES) | IC90 | further results |
| --- | --- | --- |
| CNc1nc(-c2[nH]c(C)c(C(=O)OC)c2C)cs1 | 2.11 µM | IC50 (FFLUC_HILL_SLOPE 0.348, FFLUC_R_SQUARED 0.146, HEPG2TOX_HILL_SLOPE 0.722, HEPG2TOX_R_SQUARED 0.883, PBLUC_HILL_SLOPE 1.52, PBLUC_R_SQUARED 0.828, read-out: LUCIFERASE INFECTION ASSAY - IC50): 0.496 µM |
| CC(C)CCn1c(=O)c2ccccc2n2c(SCCS(=O)(=O)c3ccc(Cl)cc3)nnc12 | > 10 µM | IC50 (HEPG2TOX_HILL_SLOPE 1.35, HEPG2TOX_R_SQUARED 0.511, PBLUC_HILL_SLOPE 2.98, PBLUC_R_SQUARED 0.427, read-out: LUCIFERASE INFECTION ASSAY - IC50): 7.28 µM |
| Clc1cccc(-c2ccnc3n[nH]c(-c4cccnc4)c23)c1 | 4.14 µM | IC50 (HEPG2TOX_HILL_SLOPE 2.64, HEPG2TOX_R_SQUARED 0.942, PBLUC_HILL_SLOPE 10.9, PBLUC_R_SQUARED 0.513, read-out: LUCIFERASE INFECTION ASSAY - IC50): 3.39 µM |
| O=c1c(-c2ccc(Cl)cc2)c[nH]n1-c1cccc(C(F)(F)F)c1 | > 9.74 µM | IC50 (FFLUC_HILL_SLOPE 17.4, FFLUC_R_SQUARED 0.432, HEPG2TOX_HILL_SLOPE 8.27, HEPG2TOX_R_SQUARED 0.828, PBLUC_HILL_SLOPE 3.62, PBLUC_R_SQUARED 0.841, read-out: LUCIFERASE INFECTION ASSAY - IC50): 5.59 µM |
| O=C(CN1C(=O)NC(Cc2ccccc2)(c2ccccc2)C1=O)N1CCc2ccccc2C1 (stereo unspecified) | > 10 µM | IC50 (PBLUC_HILL_SLOPE 3.92, PBLUC_R_SQUARED 0.472, read-out: LUCIFERASE INFECTION ASSAY - IC50): 7.9 µM |
| CN(C)S(=O)(=O)c1cccc(NC(=S)N/N=C/c2cc3c(cc2[N+](=O)[O-])OCO3)c1 | > 10 µM | IC50 (FFLUC_HILL_SLOPE 11, FFLUC_R_SQUARED 0.0812, read-out: LUCIFERASE INFECTION ASSAY - IC50): > 10 µM |
| Cc1nnnn1/C(=C\c1ccccc1)C(=O)N(Cc1cccs1)c1ccc2c(c1)OCCO2 | > 10 µM | IC50 [1]: > 10 µM |
| O=C(Nc1nc2ccc(Oc3ccccc3)cc2s1)c1ccoc1 | > 10 µM | IC50 (HEPG2TOX_HILL_SLOPE 2.54, HEPG2TOX_R_SQUARED 0.824, PBLUC_HILL_SLOPE 3.93, PBLUC_R_SQUARED 0.329, read-out: LUCIFERASE INFECTION ASSAY - IC50): 7.66 µM |
| CCN(CC(=O)Nc1ccc2c(c1)OCCO2)C(=O)CCCc1nc2ccccc2s1 | > 10 µM | IC50 [1]: > 10 µM |
| Cc1nc(N2N=C3/C(=C/c4ccc(F)cc4)CCCC3C2c2ccc(F)cc2)sc1C(=O)O (stereo unspecified) | > 10 µM | IC50 (FFLUC_HILL_SLOPE 19.4, FFLUC_R_SQUARED 0.522, read-out: LUCIFERASE INFECTION ASSAY - IC50): > 10 µM |
| Cn1c(-c2c(-c3ccccc3)n[nH]c2-c2ccc([N+](=O)[O-])cc2)nc2ccccc21 | 9.52 µM | IC50 (PBLUC_HILL_SLOPE 3.22, PBLUC_R_SQUARED 0.201, read-out: LUCIFERASE INFECTION ASSAY - IC50): 4.81 µM |
| CCOc1ccccc1NS(=O)(=O)c1ccc(C(=O)OC)cc1 | > 10 µM | IC50 (HEPG2TOX_HILL_SLOPE 3.9, HEPG2TOX_R_SQUARED 0.853, PBLUC_HILL_SLOPE 3.26, PBLUC_R_SQUARED 0.571, read-out: LUCIFERASE INFECTION ASSAY - IC50): 7.52 µM |
| Cc1occc1C(=O)NNC(=O)c1csc(-c2ccc(C(C)C)cc2)n1 | > 10 µM | IC50 (PBLUC_HILL_SLOPE 2.06, PBLUC_R_SQUARED 0.34, read-out: LUCIFERASE INFECTION ASSAY - IC50): 8.1 µM |
| N=C(Cc1cccs1)NOC(=O)Nc1cc(Cl)cc(Cl)c1 | > 9.59 µM | IC50 (PBLUC_HILL_SLOPE 2.97, PBLUC_R_SQUARED 0.445, read-out: LUCIFERASE INFECTION ASSAY - IC50): 6.76 µM |
| Cc1ccc(C(=O)NC(C)C)n1C | 0.447 µM | IC50 (PBLUC_HILL_SLOPE 12.7, PBLUC_R_SQUARED 0.475, read-out: LUCIFERASE INFECTION ASSAY - IC50): 0.376 µM |
| Cc1nnc(N(C)CCCc2n[nH]c(N)c2C#N)c2ccccc12 | > 10 µM | IC50 [1]: > 10 µM |
| CC(C)(C)C(=O)Nc1ccc(-c2nc3ncccc3o2)c(Cl)c1 | 4.94 µM | IC50 (FFLUC_HILL_SLOPE 2.53, FFLUC_R_SQUARED 0.8, PBLUC_HILL_SLOPE 0.961, PBLUC_R_SQUARED 0.809, read-out: LUCIFERASE INFECTION ASSAY - IC50): 0.502 µM |
| CCOC(=O)c1c(C)[nH]c(C(=O)C(C)OC(=O)c2n[nH]c(=O)c3ccccc23)c1C (stereo unspecified) | > 10 µM | IC50 (HEPG2TOX_HILL_SLOPE 1.25, HEPG2TOX_R_SQUARED 0.561, read-out: LUCIFERASE INFECTION ASSAY - IC50): > 10 µM |
| COC(=O)c1cc(NC(=O)C(C)(C)Oc2ccc(Cl)cc2)ccc1F | > 10 µM | IC50 (PBLUC_HILL_SLOPE 3.63, PBLUC_R_SQUARED 0.0477, read-out: LUCIFERASE INFECTION ASSAY - IC50): > 10 µM |

| Structure (SMILES) | IC90 | further results |
| --- | --- | --- |
| Cc1cc(NC(=O)c2cc(C(C)(C)C)oc2C)nc(C)n1 | > 11.5 µM | IC50 [1]: > 11.5 µM |
| CC(C)c1cccc(C(C)C)c1NC(=O)COc1ccc(CCO)cc1-n1nc2ccccc2n1 | 6.85 µM | IC50 (FFLUC_HILL_SLOPE 16.3, FFLUC_R_SQUARED 0.284, PBLUC_HILL_SLOPE 3.54, PBLUC_R_SQUARED 0.756, read-out: LUCIFERASE INFECTION ASSAY - IC50): 3.68 µM |
| Cc1ccc2nc(COc3ccc(C(=O)NC4(C)CCS(=O)(=O)C4)cc3)cn2c1 (stereo unspecified) | > 10 µM | IC50 [1]: > 10 µM |
| Cc1ccc(/C=C2\CCc3c2nc2ccccc2c3C(=O)OCc2cccc(S(=O)(=O)N(C)C)c2)cc1 | > 10 µM | IC50 (PBLUC_HILL_SLOPE 0.892, PBLUC_R_SQUARED 0.634, read-out: LUCIFERASE INFECTION ASSAY - IC50): 1.2 µM |
| CC(CO)NCCOCCOc1ccc(Cl)cc1Cc1ccccc1 (stereo unspecified) | > 10 µM | IC50 [1]: > 10 µM |
| O=C1NC(c2ccccc2)=C(c2nc3ccccc3s2)C(c2cccs2)N1 (stereo unspecified) | > 10 µM | IC50 (FFLUC_HILL_SLOPE 4.26, FFLUC_R_SQUARED 0.397, PBLUC_HILL_SLOPE 0.406, PBLUC_R_SQUARED 0.487, read-out: LUCIFERASE INFECTION ASSAY - IC50): 3.85 µM |
| CCc1cccc2c(C(=O)COC(=O)c3ccc(S(C)(=O)=O)c([N+](=O)[O-])c3)c[nH]c12 | 6.57 µM | IC50 (FFLUC_HILL_SLOPE 0.275, FFLUC_R_SQUARED 0.382, HEPG2TOX_HILL_SLOPE 0.775, HEPG2TOX_R_SQUARED 0.837, PBLUC_HILL_SLOPE 46.1, PBLUC_R_SQUARED 0.262, read-out: LUCIFERASE INFECTION ASSAY - IC50): 6.27 µM |
| CNc1nc2cnc(Nc3cccc(N(C)C)c3)cc2n1-c1cccc(C(F)(F)F)c1 | > 10 µM | IC50 [1]: > 10 µM |
| CCOC(=O)Nc1nc2ccc(C(F)(F)F)cc2[nH]1 | 1.1 µM | IC50 (HEPG2TOX_HILL_SLOPE 0.892, HEPG2TOX_R_SQUARED 0.914, PBLUC_HILL_SLOPE 2.52, PBLUC_R_SQUARED 0.681, read-out: LUCIFERASE INFECTION ASSAY - IC50): 0.459 µM |
| O=C(Nc1nc2ccccn2c1C(=O)NC1CCCCC1)c1ccccc1 | 3.28 µM | IC50 (FFLUC_HILL_SLOPE 12.3, FFLUC_R_SQUARED 0.522, HEPG2TOX_HILL_SLOPE 1.9, HEPG2TOX_R_SQUARED 0.962, PBLUC_HILL_SLOPE 15.5, PBLUC_R_SQUARED 0.368, read-out: LUCIFERASE INFECTION ASSAY - IC50): 2.84 µM |
| Cc1cc(C(=O)COC(=O)/C=C/c2cn(C)c(=O)n(C)c2=O)c(C)n1CCc1ccc(Cl)cc1 | > 10 µM | IC50 (FFLUC_HILL_SLOPE 11.7, FFLUC_R_SQUARED 0.825, read-out: LUCIFERASE INFECTION ASSAY - IC50): > 10 µM |
| COc1ccc(-c2nc(C(=O)N3c4ccccc4CC3C)cs2)cc1OC (stereo unspecified) | > 10 µM | IC50 (HEPG2TOX_HILL_SLOPE 1.77, HEPG2TOX_R_SQUARED 0.837, PBLUC_HILL_SLOPE 1.16, PBLUC_R_SQUARED 0.492, read-out: LUCIFERASE INFECTION ASSAY - IC50): 1.9 µM |
| CN(CCCc1[nH]nc(N)c1C#N)c1nc(-c2ccccn2)nc2scc(-c3ccccc3)c12 | > 10 µM | IC50 [1]: 7.69 µM |
| Cc1ccccc1-n1c(SCC(=O)NC2CCCCC2)nc(O)cc1=O | 3.36 µM | IC50 (PBLUC_HILL_SLOPE 12.2, PBLUC_R_SQUARED 0.38, read-out: LUCIFERASE INFECTION ASSAY - IC50): 2.81 µM |
| Clc1ccc(Nc2nccc3c2ncn3Cc2ccccc2)cc1 | > 10 µM | IC50 (HEPG2TOX_HILL_SLOPE 10.4, HEPG2TOX_R_SQUARED 0.978, PBLUC_HILL_SLOPE 0.755, PBLUC_R_SQUARED 0.638, read-out: LUCIFERASE INFECTION ASSAY - IC50): 0.827 µM |
| CCC(C)NC(=O)c1c(NC(=O)c2cccc(OC)c2)nc2ccc(C)cn12 (stereo unspecified) | > 8.67 µM | IC50 (FFLUC_HILL_SLOPE 19.6, FFLUC_R_SQUARED 0.348, HEPG2TOX_HILL_SLOPE 6.15, HEPG2TOX_R_SQUARED 0.729, PBLUC_HILL_SLOPE 3.4, PBLUC_R_SQUARED 0.659, read-out: LUCIFERASE INFECTION ASSAY - IC50): 5.09 µM |
| CC(C)n1ncc2c(C(=O)Nc3ccc(N4CCN(C)CC4)nc3)cc(-c3cccs3)nc21 | 8.59 µM | IC50 (HEPG2TOX_HILL_SLOPE 15.5, HEPG2TOX_R_SQUARED 0.177, PBLUC_HILL_SLOPE 20.4, 20.5, PBLUC_R_SQUARED 0.223, 0.421, read-out: LUCIFERASE INFECTION ASSAY - IC50): 7.71 µM |
| CC(Oc1ccc(C(=O)c2ccc(F)cc2)cc1)C(=O)NC1(C#N)CCCCC1 (stereo unspecified) | > 10 µM | IC50 (HEPG2TOX_HILL_SLOPE 6.49, HEPG2TOX_R_SQUARED 0.548, PBLUC_HILL_SLOPE 2.92, PBLUC_R_SQUARED 0.383, read-out: LUCIFERASE INFECTION ASSAY - IC50): 7.61 µM |
| CCOC(=O)c1ccc(-n2sccc2=O)cc1 | > 13.2 µM | IC50 [1]: > 13.2 µM |
